Laboratory results published in ChEMBL document CHEMBL4715723, “Discovery and development of benzo-[1,2,4]-triazolo-[1,4]-oxazepine GPR142 agonists for the treatment of diabetes” (Bioorg Med Chem Lett, 2016).
Calls of active or inactive are those of the source. The calls are words filed in the database; no cut-off is given here.

Key:
[1] = biological target: T1, Probable G-protein coupled receptor 142 (Homo sapiens, UniProt Q7Z601); assay: Agonist activity at human GPR142 expressed in CHO cells measured for 3 mins by Fluo-4M dye based FLIPR assay; type: cell-based; details: read-out: IC50 (the source's name)
T1 sequence (Q7Z601 whole entry): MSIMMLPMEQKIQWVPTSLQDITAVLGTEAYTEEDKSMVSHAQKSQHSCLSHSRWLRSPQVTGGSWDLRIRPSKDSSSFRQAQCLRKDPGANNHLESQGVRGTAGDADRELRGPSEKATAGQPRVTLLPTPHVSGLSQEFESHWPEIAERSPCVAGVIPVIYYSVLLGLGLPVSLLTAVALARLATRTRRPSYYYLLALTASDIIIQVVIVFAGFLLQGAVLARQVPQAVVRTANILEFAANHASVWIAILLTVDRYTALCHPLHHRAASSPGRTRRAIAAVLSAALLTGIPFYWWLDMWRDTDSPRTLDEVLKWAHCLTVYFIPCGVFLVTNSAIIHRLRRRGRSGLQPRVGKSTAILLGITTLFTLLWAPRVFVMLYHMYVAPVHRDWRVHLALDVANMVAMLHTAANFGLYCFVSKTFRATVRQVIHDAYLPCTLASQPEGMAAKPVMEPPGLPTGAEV

[2] = biological target: T2, Probable G-protein coupled receptor 142 (Mus musculus, UniProt Q7TQN9); assay: Agonist activity at mouse GPR142 expressed in CHO cells measured for 3 mins by Fluo-4M dye based FLIPR assay; type: cell-based; details: read-out: IC50 (the source's name)
T2 sequence (Q7TQN9 whole entry): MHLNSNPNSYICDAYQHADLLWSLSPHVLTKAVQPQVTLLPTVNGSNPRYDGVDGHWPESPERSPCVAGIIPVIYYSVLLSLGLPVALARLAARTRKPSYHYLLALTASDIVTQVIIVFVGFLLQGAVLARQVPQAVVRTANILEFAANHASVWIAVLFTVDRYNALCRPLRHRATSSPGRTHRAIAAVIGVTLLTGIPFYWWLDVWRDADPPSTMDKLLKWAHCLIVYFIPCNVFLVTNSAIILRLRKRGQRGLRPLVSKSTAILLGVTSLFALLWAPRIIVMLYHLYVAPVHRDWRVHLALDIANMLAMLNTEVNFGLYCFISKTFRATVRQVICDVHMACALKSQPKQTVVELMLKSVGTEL

Cytochrome P450 2D6 = Cytochrome P450 2D6 (Homo sapiens, UniProt P10635); assay: Inhibition of human liver microsomes CYP2D6 using dextromethorphan as substrate by MUX-MS/MS analysis; type: ADME, Microsome
[3] = Protein binding in rat plasma assessed as unbound fraction; type: ADME, cell-free
Cytochrome P450 3A4 = Cytochrome P450 3A4 (Homo sapiens, UniProt P08684); assay: Inhibition of human liver microsomes CYP3A4 using testosterone as substrate by MUX-MS/MS analysis; type: ADME, Microsome
[4] = Half life in rat at 2 mg/kg, po or 1 mg/kg, iv; type: ADME, organism-based; details: in vivo
[5] = Volume of distribution at steady state in rat at 2 mg/kg, po or 1 mg/kg, iv; type: ADME, organism-based; details: in vivo, read-out: Vdss
[6] = Clearance in rat at 2 mg/kg, po or 1 mg/kg, iv; type: ADME, organism-based; details: in vivo
[7] = Oral bioavailability in rat at 2 mg/kg; type: ADME, organism-based; details: in vivo
Cytochrome P450 2C9 = Cytochrome P450 2C9 (Homo sapiens, UniProt P11712); assay: Inhibition of human liver microsomes CYP2C9 using diclofenac as substrate by MUX-MS/MS analysis; type: ADME, Microsome
[8] = biological target: Voltage-gated inwardly rectifying potassium channel KCNH2 (Homo sapiens, UniProt Q12809); assay: Inhibition of human ERG expressed in HEK293 cells assessed as reduction in S35-MK-0499 binding; type: cell-based
Mus musculus [9] = assay: Antidiabetic activity in […] mouse harboring GPR142 deficient assessed as reduction in dextrose-induced blood glucose peak at 30 mg/kg, po administered before dextrose stimulation and measured upto 120 mins after dextrose administration by OGTT assay; type: functional, organism-based; details: time min <=120
Mus musculus [10] = assay: Antidiabetic activity in […] mouse assessed as reduction in dextrose-induced blood glucose peak administered po before dextrose stimulation and measured upto 120 mins after dextrose administration by OGTT assay; type: functional, organism-based; details: time min <=120

Sequence of Cytochrome P450 3A4 (P08684 whole entry): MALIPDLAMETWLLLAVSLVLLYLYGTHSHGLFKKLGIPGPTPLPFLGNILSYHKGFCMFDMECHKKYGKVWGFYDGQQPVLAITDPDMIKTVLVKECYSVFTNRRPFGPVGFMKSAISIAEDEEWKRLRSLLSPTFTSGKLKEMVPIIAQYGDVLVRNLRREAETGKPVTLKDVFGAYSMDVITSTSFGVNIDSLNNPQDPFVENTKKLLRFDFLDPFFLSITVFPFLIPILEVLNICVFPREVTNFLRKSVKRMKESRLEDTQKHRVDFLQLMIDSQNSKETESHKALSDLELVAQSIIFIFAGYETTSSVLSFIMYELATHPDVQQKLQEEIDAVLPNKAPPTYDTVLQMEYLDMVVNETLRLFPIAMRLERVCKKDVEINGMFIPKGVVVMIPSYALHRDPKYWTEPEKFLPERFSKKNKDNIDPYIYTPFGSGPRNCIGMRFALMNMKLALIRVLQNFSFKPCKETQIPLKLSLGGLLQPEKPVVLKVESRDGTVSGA
Sequence of Cytochrome P450 2D6 (P10635 whole entry): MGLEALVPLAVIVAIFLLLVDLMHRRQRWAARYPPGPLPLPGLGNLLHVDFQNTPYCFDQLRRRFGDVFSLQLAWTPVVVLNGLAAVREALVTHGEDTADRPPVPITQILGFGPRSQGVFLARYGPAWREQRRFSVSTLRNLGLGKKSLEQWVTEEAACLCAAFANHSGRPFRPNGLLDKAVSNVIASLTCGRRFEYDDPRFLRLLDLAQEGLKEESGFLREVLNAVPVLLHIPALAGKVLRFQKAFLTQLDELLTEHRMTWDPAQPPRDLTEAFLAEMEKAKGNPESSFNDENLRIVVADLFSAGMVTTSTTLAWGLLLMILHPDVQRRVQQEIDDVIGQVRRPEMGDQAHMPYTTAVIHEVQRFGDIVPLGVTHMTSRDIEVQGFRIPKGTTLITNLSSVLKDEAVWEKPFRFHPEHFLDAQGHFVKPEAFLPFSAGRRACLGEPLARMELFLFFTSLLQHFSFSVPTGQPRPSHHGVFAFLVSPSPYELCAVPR
Sequence of Cytochrome P450 2C9 (P11712 whole entry): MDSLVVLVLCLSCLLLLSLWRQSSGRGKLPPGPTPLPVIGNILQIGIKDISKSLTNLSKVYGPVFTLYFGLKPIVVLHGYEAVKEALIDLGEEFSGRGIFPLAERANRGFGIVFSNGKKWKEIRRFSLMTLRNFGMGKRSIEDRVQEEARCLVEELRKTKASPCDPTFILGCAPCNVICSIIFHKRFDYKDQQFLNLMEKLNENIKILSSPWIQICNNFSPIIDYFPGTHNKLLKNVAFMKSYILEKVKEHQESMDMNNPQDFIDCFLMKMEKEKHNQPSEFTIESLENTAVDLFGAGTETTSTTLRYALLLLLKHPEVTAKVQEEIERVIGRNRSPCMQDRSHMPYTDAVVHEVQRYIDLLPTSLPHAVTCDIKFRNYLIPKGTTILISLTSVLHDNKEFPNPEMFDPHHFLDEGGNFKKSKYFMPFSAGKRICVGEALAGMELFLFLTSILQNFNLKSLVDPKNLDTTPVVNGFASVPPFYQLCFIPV
Sequence of Voltage-gated inwardly rectifying potassium channel KCNH2 (Q12809 whole entry): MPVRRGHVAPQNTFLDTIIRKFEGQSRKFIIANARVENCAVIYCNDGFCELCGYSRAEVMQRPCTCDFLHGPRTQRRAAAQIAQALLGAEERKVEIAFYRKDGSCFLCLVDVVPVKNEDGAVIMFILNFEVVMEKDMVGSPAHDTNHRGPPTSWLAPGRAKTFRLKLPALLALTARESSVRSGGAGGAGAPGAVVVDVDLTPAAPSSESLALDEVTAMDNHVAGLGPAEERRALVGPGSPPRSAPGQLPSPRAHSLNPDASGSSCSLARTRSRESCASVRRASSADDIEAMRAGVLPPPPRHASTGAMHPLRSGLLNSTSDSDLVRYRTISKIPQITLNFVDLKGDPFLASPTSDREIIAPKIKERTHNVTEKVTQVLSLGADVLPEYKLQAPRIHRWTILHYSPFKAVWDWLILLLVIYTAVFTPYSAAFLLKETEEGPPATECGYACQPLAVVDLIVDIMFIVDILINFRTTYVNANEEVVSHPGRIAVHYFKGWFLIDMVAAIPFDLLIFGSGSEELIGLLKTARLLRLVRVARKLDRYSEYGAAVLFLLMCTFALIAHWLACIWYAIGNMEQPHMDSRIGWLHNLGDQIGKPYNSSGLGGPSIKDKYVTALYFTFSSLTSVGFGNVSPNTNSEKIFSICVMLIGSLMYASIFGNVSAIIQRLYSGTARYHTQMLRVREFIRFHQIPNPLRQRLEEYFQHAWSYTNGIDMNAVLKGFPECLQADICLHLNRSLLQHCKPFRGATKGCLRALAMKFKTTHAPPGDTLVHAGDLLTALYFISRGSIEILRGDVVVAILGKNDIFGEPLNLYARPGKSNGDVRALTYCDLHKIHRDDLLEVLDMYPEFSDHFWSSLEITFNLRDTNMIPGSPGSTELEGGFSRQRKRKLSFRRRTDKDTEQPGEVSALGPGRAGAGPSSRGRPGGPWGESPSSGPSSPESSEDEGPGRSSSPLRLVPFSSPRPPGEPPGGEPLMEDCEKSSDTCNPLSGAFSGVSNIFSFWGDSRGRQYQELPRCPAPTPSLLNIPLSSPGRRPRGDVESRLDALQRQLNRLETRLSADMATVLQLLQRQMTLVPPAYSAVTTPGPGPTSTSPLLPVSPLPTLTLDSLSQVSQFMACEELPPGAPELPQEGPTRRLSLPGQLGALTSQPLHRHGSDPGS

| SMILES | EC50 [1] [nM] | EC50 [2] [nM] | IC50 (Cytochrome P450 2D6) [nM] | IC50 (Cytochrome P450 3A4) [µM] | IC50 (Cytochrome P450 2C9) [nM] | IC50 [8] [nM] | also measured |
| --- | --- | --- | --- | --- | --- | --- | --- |
| O=C(Nc1ccc(Cl)c(Cl)c1)N1Cc2ccc(-c3ccncc3)cc2C1 | > 20000 | > 20000 |  |  |  |  |  |
| COc1ccc(NC(=O)N2CCOc3ccc(-c4ccncc4)cc3C2)cc1 | > 20000 | > 20000 |  |  |  |  |  |
| COc1cccc(NC(=O)N2CCOc3ccc(-c4ccncc4OC)cc3C2)c1 | 187 | 486 |  |  |  |  |  |
| O=C(Nc1cccc(Cl)c1Cl)N1CCOc2ccc(-c3ccncc3)cc2C1 | 708 | 157 |  |  |  |  |  |
| O=C(Nc1ccc(Cl)c(Cl)c1)N1CCNc2ccc(-c3ccncc3)cc2C1 | 146 | 158 |  |  |  |  |  |
| COc1cccc(NC(=O)N2CCOc3ccc(-c4ccnc(C)c4)cc3C2)c1 | 374 |  |  |  |  |  |  |
| Cc1cc(-c2ccc3c(c2)-c2nnc(Nc4cccc(Cl)c4)n2CCO3)ccn1 |  |  | 792 | 11.8 | 3440 |  | fraction unbound [3]: 0.0337; half-life [4]: 150 min; Vd [5]: 1.9 L/kg; clearance [6]: 7.8 mL/min/kg; bioavailability [7]: 40% |
| Cc1cc(-c2ccc3c(c2)-c2nnc(Nc4cccc(OC(F)(F)F)c4)n2CCO3)ccn1 | 45 |  | 1720 | > 50 | 1390 | 236 | fraction unbound [3]: 0.0949; half-life [4]: 120 min; Vd [5]: 1.9 L/kg; clearance [6]: 11 mL/min/kg |
| O=C(Nc1ccc(Cl)c(Cl)c1)N1CCc2ccc(-c3ccncc3)cc2C1 | 1850 | 1050 |  |  |  |  |  |
| Cc1cc(-c2ccc3c(c2)-c2nnc(Oc4cccc(OC(F)(F)F)c4)n2CCO3)ccn1 | 78 |  | 1950 | > 50 | 14300 | 693 |  |
| FC(F)(F)Oc1cccc(Nc2nnc3n2CCOc2ccc(-c4ccncc4)cc2-3)c1 | 63 |  | 802 | 1.61 | 934 | 605 | Activity (Mus musculus [9]): inactive; fraction unbound [3]: 0.0041; half-life [4]: 60 min; Activity (Mus musculus [10]): Dose-dependent effect; Vd [5]: 2.2 L/kg; clearance [6]: 23.9 mL/min/kg; bioavailability [7]: 40% |
| Cc1cc(-c2ccc3c(c2)-c2nnc(Oc4cccc(Cl)c4F)n2CCO3)ccn1 | 56 |  | 12100 | 8.39 | 5260 | 2410 | fraction unbound [3]: 0.0111; half-life [4]: 120 min; Activity (Mus musculus [10]): Dose-dependent effect; Vd [5]: 1.6 L/kg; clearance [6]: 8.9 mL/min/kg; bioavailability [7]: 67% |
| COc1cccc(NC(=O)N2CCOc3ccc(-c4ccncc4)cc3C2)c1 | 249 | 305 |  |  |  |  |  |
| N#Cc1cccc(NC(=O)N2CCOc3ccc(-n4ccnc4)cc3C2)c1 | 110 |  |  |  |  |  |  |
| O=C(Nc1cccc(-c2ccccc2)c1)N1CCOc2ccc(-c3ccncc3)cc2C1 | 343 | 62 |  |  |  |  |  |
| O=C(Cc1cccc(C(F)(F)F)c1)N1CCOc2ccc(-c3ccncc3)cc2C1 | 1640 | 611 |  |  |  |  |  |
| FC(F)(F)c1cccc(Nc2nnc3n2CCOc2ccc(-c4ccncc4)cc2-3)c1 | 48 |  | 782 | 0.516 | 531 | 557 |  |
| O=C(Nc1cccc(Cl)c1)N1CCOc2ccc(-c3ccncc3)cc2C1 | 108 | 164 |  |  |  |  | fraction unbound [3]: 0.0086; half-life [4]: 39.6 min; Vd [5]: 2 L/kg; clearance [6]: 56.1 mL/min/kg; bioavailability [7]: 1% |
| O=C(Nc1ccc(Cl)c(Cl)c1)N1CCc2ccc(-c3ccncc3)cc21 | > 20000 | 2950 |  |  |  |  |  |
| N#Cc1cccc(NC(=O)N2CCOc3ccc(-c4ccncc4)cc3C2)c1 | 80 | 79 |  |  |  |  |  |
| O=C(Nc1cccc(Cl)c1F)N1CCOc2ccc(-c3ccncc3)cc2C1 | 163 | 59 |  |  |  |  |  |
| Cc1cc(-c2ccc3c(c2)-c2nnc(Oc4cccc(Cl)c4)n2CCO3)ccn1 | 58 |  | 7020 | > 50 | > 50000 | 931 |  |
| Cc1cc(-c2ccc3c(c2)-c2nnc(Cc4cccc(Cl)c4)n2CCO3)ccn1 | 593 |  | 1010 | 1.06 | 1450 | 3860 |  |
